According to US20200188319A1, “Use Of Inhaled Nitric Oxide For The Treatment Of Pulmonary Hypertension Associated With Lung Disease” (Bellerophon Pulse Technologies LLC, priority 2017, published 2020):
Where “and” joins values, the source holds several entries; their conditions need not be identical. Equal entries are not always repeated. Where two headings read alike, the source gives them in different places.

How the values were obtained:
PH-IPF subjects [1] = experiment: Acute iNO: blood vessel volume by HRCT in PH-IPF subjects on LTOT; format: in vivo, human
Excerpt: This study was an exploratory, three-part, clinical study to assess the effect of pulsed iNO on functional pulmonary imaging parameters in subjects with PH-COPD on LTOT (Part 1) PH-IPF on LTOT (Part 2 and Part 3) (IK-7002-COPD-006; NCT02267655). The objective of this exploratory study was to examine the utility of high resolution computed tomography (HRCT) to measure changes in functional respiratory imaging parameters as a function of short term iNO administration using a pulsed NO delivery device in subjects with PH-IPF (Part 2 and Part 3) on LTOT. The primary endpoint in this exploratory study is the change from baseline in lobar blood volume at total lung capacity (TLC) after dosing with pulsed iNO (Part 1), iNO or Placebo (Part 2a) and after 4 weeks iNO treatment (Part 3b) as measured by HRCT.
This was an exploratory clinical study to evaluated the utility of HRCT to measure the pharmacodynamic effects of short term pulsed administration of iNO using a pulsed NO delivery device in subjects with PH-IPF (Part 2 and Part 3) on LTOT.
(§1) The 2 subjects enrolled in Part 2 were randomly assigned for Part 2a to 1 of 2 sequences to receive iNO utilizing the NO cylinder concentration (4,880 ppm) at a dose of 75 mcg/kg IBW/hr or placebo set at a dose of 75 mcg/kg IBW/hr.
(§2) The 2 subjects enrolled in Part 3a each received three different doses of iNO utilizing NO cylinder concentration (4,880 ppm) at a dose of 5 mcg/kg IBW/hr, 10 mcg/kg IBW/hr and 30 mcg/kg IBW/hr, all with LTOT. For each dose, the change in PAP pressure and the change in cardiac output was evaluated by RHC. The investigator could decide after each dose to continue with the following dose or not.
(§3) […], the vasodilation and the hemodynamics were assessed. During the chronic phase, the focus was exercise capacity. Oxygen saturation during exercise was evaluated both at baseline as well as after 4 weeks of chronic treatment with iNO. Both the acute and chronic phases evaluated iNO doses of 30 and 75 mcg/kg IBW/hr.

PH-IPF subjects [2] = experiment: Acute iNO: sPAP in PH-IPF subjects; format: in vivo, human
Excerpt: In Part 2 of the study the subjects needed to have severe PH, therefore PH in Part 2 was defined as sPAP≥50 mm Hg by 2-D echocardiogram. In Part 3 PH was defined as sPAP≥35 mm Hg by echocardiogram (Part 3).
as §1, §2, §3

PH-IPF subjects [3] = experiment: Chronic iNO: SpO2 during 6MWT in PH-IPF subjects; format: in vivo, human; settings: during exercise (6MWT)
Excerpt: The secondary endpoints of Part 2b (chronic dosing) were change in 6MWT with Borg CR10 leg fatigue and dyspnea scale and SpO2, at the beginning and end of the 6MWT and symptoms evaluated using a questionnaire with after 4 weeks use of iNO at a dose of 75 mcg/kg IBW/hr and 2 weeks post discontinuation of iNO.
The secondary endpoints of Part 3b (chronic dosing) were change in 6MWT with Borg CR10 leg fatigue and dyspnea scale and SpO2, at the beginning and end of the 6MWT and symptoms evaluated using a questionnaire after 4 weeks use of iNO at a dose of 30 mcg/kg IBW/hr.
In Part 2b and Part 3b change in 6MWT with Borg CR10 leg fatigue and dyspnea scale and SpO2, at the beginning and end of the 6MWT, and a symptoms questionnaire were used to assess the effects of long term pulsed iNO administered using a pulsed NO delivery device in subjects with PH associated with IPF on LTOT.
(§4) One patient from Part 2a entered into Part 2b. During Part 2b patient receive iNO utilizing NO cylinder concentration (4,880 ppm) at a dose of 75 mcg/kg IBW/hr during 4 weeks for at least 12 hours/day.
(§5) The 2 patients from Part 3a entered Part 3b. During Part 3b, patients received iNO utilizing NO cylinder concentration (4,880 ppm) at a dose of 30 mcg/kg IBW/hr.
as §3

PH-IPF subjects [4] = experiment: Chronic iNO: TAPSE (RV function) in PH-IPF subjects; format: in vivo, human
Excerpt: (§6) One or more embodiments of the present invention also relate to maintaining and/or improving right ventricular (RV) function using long-term iNO therapy. Maintenance and/or improvements in RV function can be assessed by many echocardiographic measurements. One such quantitative approach to assess RV function is the measurement of the tricuspid annular plane systolic excursion (TAPSE). The TAPSE estimates RV systolic function by measuring the level of systolic excursion of the lateral tricuspid valve annulus towards the apex. An excellent correlation between the TAPSE and RV ejection fraction as assessed by radionuclide angiography has previously been established and the approach appears reproducible and proven to be a strong predictor of prognosis in heart failure. [Reference: Heart. 2006 April; 92(Suppl 1): i19-i26.]
as §4, §5
Subject 1 received pulsed iNO at a dose of 75 mcg/kg IBW/hr for 4 weeks, and Subject 3 received pulsed iNO at a dose of 30 mcg/kg IBW/hr for 4 weeks.

PH-IPF subjects [5] = experiment: Safety of iNO dose in PH-IPF subjects (PAP, RHC-monitored titration); format: in vivo, human
Method: The safety endpoints in this study were: • 1. Incidence and severity of treatment emergent adverse events (AEs), including those related to device deficiency; • 2. Incidence of MetHb levels >7.0%; • 3. New symptoms that may be due to rebound PH associated with a temporal acute withdrawal of investigational study drug (i.e., symptoms occurring within 20 minutes of acute withdrawal and including those associated with investigational medical device malfunction or failure): systemic arterial oxygen desaturation, hypoxemia, bradycardia, tachycardia, systemic hypotension, near-syncope, syncope, ventricular fibrillation, and/or cardiac arrest; • 4. New or worsening symptoms of left heart failure or pulmonary edema; and • 5. Any decrease in systemic oxygenation measured by oxygen saturation of arterial blood by pulse oximetry (SpO2), i.e., hypoxia or oxygen saturation decrease, deemed by the Investigator to be clinically significant.
The initial protocol intended that 4 subjects would be enrolled in Part 2. […] It was decided to temporarily stop recruitment. One of the 2 subjects completed 4 weeks of chronic use in Part 2b.
In the amendment a total of 2 subjects participated in Part 3. The dose in Part 3 was lower than in Part 2 and each subject was titrated to the optimum dose as determined by the investigator. […] The dose was monitored with a RHC in place. […]

PH-COPD subjects [6] = experiment: Chronic iNO: TAPSE in PH-COPD subjects; format: in vivo, human
Excerpt: as §6
(§7) This study is an open label Phase 1 study of iNO therapy in subjects with PH-COPD (PULSE-COPD-007; NCT03135860). The primary outcome of this study is the change in lobar blood volume at total lung capacity with iNO and the change in lobar blood volume with iNO after 4 weeks of treatment with iNO as measured by HRCT.
(§8) Subjects also had sPAP≥38 mm Hg as measured by echocardiogram, a post-bronchodilatory FEV1/FVC<0.7 and a FEV1<60% predicted. All subjects were at least 40 years old and were current or former smokers with at least 10 pack-years of tobacco cigarette smoking before study entry. All subjects also had been receiving LTOT for at least 3 months for at least 10 hours per day.
(§9) The PH-COPD subjects received pulsed iNO therapy for 4 weeks for at least 12 hours/day. The iNO was administered utilizing a 4,880 ppm NO cylinder concentration.
These subjects were diagnosed with PH-COPD and received 4 weeks of treatment with iNO at a dose of 30 mcg/kg IBW/hr. The results verify the increase in TAPSE which correlates to RV function.

PH-COPD subjects [7] = experiment: Acute iNO: blood vessel volume by HRCT in PH-COPD subjects; format: in vivo, human; settings: acute assessment
Excerpt: as §7, §8
(§10) A further analysis was performed of seven PH-COPD subjects that completed 4 weeks of treatment with iNO at a dose of 30 mcg/kg IBW/hr. The 6MWD and sPAP results are also presented in FIGS. 10 and 11, respectively.

PH-COPD subjects [8] = experiment: Chronic iNO: sPAP by echocardiogram in PH-COPD subjects; format: in vivo, human; settings: group value, FIG. 11
Excerpt: as §7, §8, §9, §10
As shown in FIG. 10, the change in 6MWD after 2 weeks of iNO therapy is +53.9 meters (p=0.02). Similarly, the change in 6MWD after 4 weeks of iNO therapy is +50.7 meters (p=0.04). In the literature, 27-54 meter improvements in 6MWD are considered clinically significant as measured by patient perceptions of improvement.

PH-COPD subjects [9] = experiment: Chronic iNO: six-minute walk distance (6MWD) in PH-COPD subjects; format: in vivo, human; settings: seven PH-COPD subjects, group value, iNO 30 mcg/kg/IBW, FIG. 10
Excerpt: Oxygen saturation can be measured before, during or after tests that assess exercise capacity. One approach to assess exercise capacity is the six-minute walk test, which provides the 6MWD. Other measurements that can be used to assess exercise capacity include, but are not limited to, shuttle walk test, activity level, forced exercise, maximal exercise test, treadmill, bicycle and cardiopulmonary exercise test.
as §7, §8, §9
A further analysis was performed of seven PH-COPD subjects that completed 4 weeks of treatment with iNO at a dose of 30 mcg/kg IBW/hr. […]

[10] = test system: pulmonary arterial hypertension (PAH); settings: cited from earlier work
[11] = iNO 30 mcg/kg IBW/hr, PH-IPF Patients 3 and 4
[12] = Average of PH-IPF Subjects 1 (75) and 3 (30 mcg/kg IBW/hr), 4 weeks
[13] = PH-IPF Subject 1, pulsed iNO 75 mcg/kg IBW/hr for 4 weeks
[14] = PH-IPF Subject 3, pulsed iNO 30 mcg/kg IBW/hr for 4 weeks
[15] = Average of four PH-COPD subjects, iNO 30 mcg/kg IBW/hr for 4 weeks

For `[N]=O` [iNO, nitric oxide], the “Acute change in blood vessel volume (%)” value (PH-IPF subjects [1]; [11]) was 2.8 ± 3.0% and 10.1 ± 3.4%, the “regional vasodilation in the lungs (targeting)” value (PH-IPF subjects [1]; iNO 30 mcg/kg IBW/hr, Patients 3 & 4, FIGS. 7 and 8) was “clear targeting of the drug” and the overall vasodilation (PH-IPF subjects [1]; iNO 30 mcg/kg IBW/hr, range over Patients 3 & 4) was 2.8-10.1%. For the same compound, the “regional vasodilation in the lungs (targeting)” value (PH-IPF subjects [1]; iNO 75 mcg/kg IBW/hr, Patients 1 & 2, FIGS. 5 and 6) was “little to no targeted vasodilation”, the overall vasodilation (PH-IPF subjects [1]; iNO 75 mcg/kg IBW/hr, range over Patients 1 & 2) was 14.2-34.2% and the “Acute Change in sPAP (%)” value (PH-IPF subjects [2]; [11]) was −14.3% and −23.3%. For the same compound, the “Acute Change in sPAP (%)” value (PH-IPF subjects [2]; iNO 75 mcg/kg IBW/hr, PH-IPF Patients 1 and 2) was −9.3% and −9.7%, the “SpO2 Nadir” value (PH-IPF subjects [3]; 4 Weeks iNO 30 mcg/kg IBW/hr, Patient 3, baseline 83) was 89 and the “SpO2 Average” value (PH-IPF subjects [3]; 4 Weeks iNO 30 mcg/kg IBW/hr, Patient 3, baseline 88.9) was 95.7. For the same compound, the “SpO2 Nadir” value (PH-IPF subjects [3]; 4 Weeks iNO 75 mcg/kg IBW/hr, Patient 1, baseline 76) was 79, the “SpO2 Average” value (PH-IPF subjects [3]; 4 Weeks iNO 75 mcg/kg IBW/hr, Patient 1, baseline 89.4) was 86.6 and the “TAPSE % Change, Average” value (PH-IPF subjects [4]; [12]) was 15%. For the same compound, the “TAPSE Increase, Average” value (PH-IPF subjects [4]; [12]) was 3, the “TAPSE 4 Week, Average” value (PH-IPF subjects [4]; Average of PH-IPF Subjects 1 (75) and 3 (30 mcg/kg IBW/hr), 4 weeks, baseline 20) was 23 and the “TAPSE % Change” value (PH-IPF subjects [4]; [13]) was 21%. The “TAPSE Increase” value (PH-IPF subjects [4]; [13]) was 3, the “TAPSE 4 Week” value (PH-IPF subjects [4]; PH-IPF Subject 1, pulsed iNO 75 mcg/kg IBW/hr for 4 weeks, baseline 14) was 17 and the “TAPSE % Change” value (PH-IPF subjects [4]; [14]) was 12%. The “TAPSE Increase” value (PH-IPF subjects [4]; [14]) was 4, the “TAPSE 4 Week” value (PH-IPF subjects [4]; PH-IPF Subject 3, pulsed iNO 30 mcg/kg IBW/hr for 4 weeks, baseline 25) was 28 and the “PAP after discontinuation of iNO” value (PH-IPF subjects [5]; iNO 75 mcg/kg IBW/hr, the two IPF patients of Part 2) was “sudden increase in PAP after discontinuation”. The “dose titration monitored with RHC” value (PH-IPF subjects [5]; iNO titrated to 30 mcg/kg IBW/hr, 2 subjects of Part 3) was “safely”, the “TAPSE % Change, Average” value (PH-COPD subjects [6]; [15]) was 25% and the “TAPSE Increase, Average” value (PH-COPD subjects [6]; [15]) was 4. For the same compound, the “TAPSE 4 Week, Average” value (PH-COPD subjects [6]; Average of four PH-COPD subjects, iNO 30 mcg/kg IBW/hr for 4 weeks, baseline 16) was 20, the “TAPSE after iNO therapy was discontinued” value (PH-COPD subjects [6]; PH-COPD subjects, N=5, FIG. 12) was 19.0 and the “TAPSE after chronic iNO therapy” value (PH-COPD subjects [6]; PH-COPD subjects, N=7, baseline 18.8 (N=6), FIG. 12) was 21.3. The ventilation-vasodilation correlation (PH-COPD subjects [7]; PH-COPD subjects, p=0.03, FIG. 9) was “significant”, the “increase in blood vessel volume on iNO (average)” value (PH-COPD subjects [7]; nine PH-COPD subjects, statistically significant) was 4.2% and the “sPAP 4 weeks after iNO therapy was discontinued” value (PH-COPD subjects [8]; PH-COPD subjects) was 58.0 mm Hg. For the same compound, the “sPAP after 4 weeks of iNO therapy” value (PH-COPD subjects [8]; seven PH-COPD subjects, iNO 30 mcg/kg IBW/hr, baseline 60.3 mm Hg, p=0.02) was 48.3 mm Hg, the “change in 6MWD after 2 weeks of iNO therapy” value (PH-COPD subjects [9]; p=0.02) was “+53.9 meters” and the “change in 6MWD after 4 weeks of iNO therapy” value (PH-COPD subjects [9]; p=0.04) was “+50.7 meters”. For the same compound, the “efficacy for the treatment of PAH” value ([10]; iNO dose 25 mcg/kg IBW/hr, same previous clinical study) was “inefficacious” and the “efficacy for the treatment of PAH” value ([10]; iNO dose 75 mcg/kg IBW/hr, previous clinical study) was “effective”.
